For series [1] the following is noted: chronic TETA. The protocol:
Glucose and Insulin Tolerance Test. For glucose tolerance test (GTT) mice were fasted O/N for 16 hours. 2.5 g/kg/BW glucose solution in PBS was injected intraperitoneally and blood glucose levels was measured by means of glucometer in tail vein blood. Tail snipping was used to obtain blood. Before snips, the tail end was dipped into Bupivicaine (0.25%) for local anesthesia. For the insulin tolerance test (ITT), mice were starved for 4 hours and a solution of 0.75 U/kg/BW insulin was injected intraperitoneally. Blood glucose is measured at 30, 60, and 120 minutes after glucose or insulin injection.

The text on series [2]: Mouse experiments Six-to 7-week-old male WT C57Bl/6 were obtained from Envigo, France. Mice were maintained in specific pathogen-free conditions in a temperature-controlled environment with 12-hr light/12-hr dark cycles and received food and water ad libitum. Animal experiments were in compliance with the EU Directive 63/2010 and protocols 2012_069 and APAFIS #5272-2016042112271931v2 were approved by Ethical Committee of the Gustave Roussy Campus and Cordeliers Research Centre respectively. For weight gain experiments, mice were fed high fat diet (#260HF, Safe, France) or were given 30% sucrose solution in tap water.

For series [3] the following is noted: patients, long-term (decades) administration; cited from earlier work.
The conditions of series [4]: HFD mice, TETA 8 weeks. The protocol:
Plasma cytokine measurements. Plasma was harvested from blood collection tubes by centrifugation at 15,000 rpm for 30 min, and stored at −80° C. Cytokines and levels were measured using a mouse serum adipokine immunoassay kit according to the protocol provided by the manufacturer (Cat. # MMHMAG-44K, EMD Millipore, Temecula, Calif., USA).

The test system of series [5] is N-e-acetylated Lysine residues of proteins. Description: Quantitative analysis of protein acetylation in tissues (immunofluorescence). Conditions: mice.
Series [6] concerns autophagy (LC3-I to LC3-II conversion, p62/SQSTM1 degradation). The note with it: oral administration (not shown). The protocol: Tissue processing for Immunoblotting. […] Tissue extracts were then centrifuged at 12,000 g at 4° C. and supernatants were collected. Protein concentration in the supernatants was evaluated by the bicinchoninic acid technique (#23225, BCA protein assay kit). Protein extracts were run on 4-12% Bis-Tris acrylamide gels (# NP0322, Thermo Fisher Scientific) and electrotransferred to […] polyvinylidene fluoride (PVDF) membranes (#1620177,Bio-Rad). […] Equal protein loading was monitored by probing membranes with a glyceraldeyde-3-phosphate dehydrogenase (GAPDH)-specific antibody (#2118, Cell Signaling Technology). Membranes were developed with suitable horseradish peroxidase conjugates followed by chemiluminescence-based detection with the Amersham ECL Prime (# RPN2232, GE Healthcare and the ImageQuant LAS 4000 software-assisted imager (GE Healthcare, Piscataway, N.J., USA). Quantification was performed by densitometry by means of Image J software. Autophagy was quantified through evaluation of LC3-II/GAPDH ratio and SQSTM1/GAPDH ratio in accordance to guidelines.

Another series concerns Drosophila. The note with it: cited from earlier work.
The conditions of series [7]: cited from earlier work.
For series [8] the following is noted: old mice; cited from earlier work.
For series [9] the following is noted: ApoE-/- mice fed a high-fat diet for 20 weeks; cited from earlier work.
The conditions of series [10]: mice on a high fat diet; cited from earlier work.
For series [11] the following is noted: Dahl salt-sensitive rats, high-salt diet, oral supplementation; cited from earlier work.
The conditions of series [12]: mice, model of normal tension glaucoma; cited from earlier work.
The conditions of series [13]: old mice; cited from earlier work. The source holds these as a separate data set.
For series [14] the following is noted: mice, spermidine supplementation; cited from earlier work.
The conditions of series [15]: mice; cited from earlier work.
The conditions of series [16]: in vivo; cited from earlier work.
In series [17] the test system is invertebrate model organisms. Conditions: spermidine supplementation; cited from earlier work.
In series [18] the test system is polyamine and acetyl coenzyme A metabolism. Description: Metabolomics analysis of tissues (polyamines, acetyl CoA, TETA metabolites). The class given is in vivo, mouse. The note with it: for Acetyl coenzyme A (CoA) levels: liver (FIG. 7C); for Acetyl coenzyme A (CoA) levels / Ratio of N1-acetylspermidine over spermidine (polyamine catabolism): mice upon HFD regimen; for Ratio of N1-acetylspermidine over spermidine (polyamine catabolism): liver, heart or muscle (FIG. 7B).
Method: Metabolomics analysis. All standard and reagents used were from Sigma Aldrich except Ammonium carbonate (VWR). For sample preparation, about 30 mg of tissues for each condition were first weighted and solubilized into 1.5 mL polypropylene microcentrifuge tubes with ceramic beads with 1 mL of cold lysate buffer (MeOH/Water/Chloroform, 9/1/1, −20° C.). They were then homogenized three times for 20 s at 5500 rpm using a Precellys 24 tissue homogenator (Bertin Technologies, Montigny-le-Bretonneux, France), followed by a centrifugation (10 min at 15000 g, 4° C.). […] The LC-MS dried extracts were solubilized with 450 μL of MilliQ water and aliquoted in 3 microcentrifuge tubes (100 μL) for each LC method and one microcentrifuge tube for safety. Aliquots for analysis were transferred in LC vials and injected into LC/MS or kept at −80° C. until injection. For sample preparation of polyamines, about 30 mg of tissues for each condition were first weighted and solubilized into 1.5 mL polypropylene microcentrifuge tubes, with 1 mL of cold lysate buffer with 1% sulfosalicylic acid (MeOH /water 1% SSA, 9/1, −20° C.). They were then homogenized three times for 20 s at 5500 rpm using Precellys 24 tissue homogenator (Bertin Technologies, Montigny-le-Bretonneux, France), followed by a centrifugation (10 min at 15000 g, 4° C.). 600 μL of the upper phase of the supernatant was collected and evaporated in microcentrifuge tubes at 40° C. in a pneumatically assisted concentrator (Techne DB3, Staffordshire, UK). The LC-MS dried extracts were solubilized with 300 μL of MilliQ water, centrifugated (10 min at 15000 g, 4° C.), and 50 μL were transferred in polypropylene vial injection for LC method and the rest was transferred in microcentrifuge tube for safety. Aliquots transferred in polypropylene vials were injected into LC/MS or kept at −80° C. until injection. Targeted analysis of CoAs and nucleoside phosphates by ion pairing ultrahigh performance liquid chromatography (UHPLC) coupled to a Triple Quadrupole (QQQ) mass spectrometer was performed on a RRLC 1260 system (Agilent Technologies, Waldbronn, Germany) coupled to a Triple Quadrupole 6410 (Agilent Technologies) equipped with an electrospray source operating in positive mode. The gas temperature was set to 350° C. with a gas flow of 12 L/min. The capillary voltage was set to 3.5 kV.
10 μL of sample were injected on a Column XDB-C18 (100 mm×2.1 mm particle size 1.8 μm) from Agilent technologies, protected by a guard column XDB-C18 (5 mm×2.1 mm particle size 1.8 μm) and heated at 40° C. by a pelletier oven.
The gradient mobile phase consisted of water with 2 mM of DBAA (A) and acetonitrile (B). The flow rate was set to 0.2 mL/min, and gradient as follow: initial condition was 90% phase A and 10% phase B, maintained during 4 min. Molecules were then eluted using a gradient from 10% to 95% phase B over 3 min.

Where [19] appears, read: mice with excessive weight gain (HFD, sucrose, ob/ob).
The mark [20] stands for this setting: mice with excessive weight gain, chronic TETA (not shown).

Entries after “also recorded” stand apart in the source; their conditions may differ. Like-named read-outs stand apart in the source and are kept apart here.

In the case of `NCCNCCNCCN` [TETA, N,N′-Bis(2-aminoethyl)ethane-1,2-diamine], in [1] (WT mice fed a normal diet), the Glucose tolerance test result is “had no effect” and the Insulin tolerance test entry is “had no effect”. In addition, in series [1] (setting [19]), the “Plasma glucose concentration after intraperitoneal glucose (GTT)” value is recorded as “reduced the plasma glucose concentration” and the “Transient decrease in glycemia after injection of insulin (ITT)” value is “enhanced the transient decrease in glycemia”. In [2] (setting [20]), the “Accumulation of intestinal and perigonadal adipose tissue” value was “reduced accumulation of intestinal and perigonadal adipose tissue”; the “Fat accumulation in the liver” value was “reduced fat accumulation in the liver”. Besides, the Weight gain entry in series [2] (normal mice on a high-fat diet, TETA in drinking water) is on record as “reduced the accelerated weight gain”. The Weight gain entry in [2] (normal mice on a high-sucrose diet (30% sucrose in drinking water), TETA per os 100 mg/kg) is “reduced the accelerated weight gain”. The Weight gain entry in [2] (ob/ob mice) is “reduced the accelerated weight gain”. In addition, the Weight gain entry in series [2] (wild type mice on standard chow, TETA in drinking water or by gavage) is listed as “failed to affect the physiological weight gain”. For the same compound, the Side effects result in series [3] is recorded as “side effects are mild”. Further, in [4], the “Plasma C-peptide” value is listed as “prevented the HFD-induced elevation”, the “Plasma IGFBP1” value is listed as “prevented the HFD-induced elevation”, the Plasma adiponectin levels entry is listed as “increased the adiponectin levels” and the “Plasma gastric inhibitory peptide (GIP)” value is on record as “prevented the HFD-induced elevation”. Moreover, in [4], the Plasma insulin result is listed as “prevented the HFD-induced elevation”, the Plasma leptin result is recorded as “prevented the HFD-induced elevation”, the “Plasma plasminogen activator inhibitor-1 (PAI-1)” value is given as “prevented the HFD-induced elevation” and the Plasma resistin result is “prevented the HFD-induced elevation”. In addition, in series [5], the “Protein acetylation in heart (cardiomyocytes)” value is given as “reduces protein acetylation; also recorded: reduction in protein acetylation” and the “Protein acetylation in liver (hepatocytes)” value was “reduces protein acetylation; also recorded: reduction in protein acetylation”. For the same compound, the “Signs of autophagy in several mouse organs” value in series [6] is “induced signs of autophagy”.
For the compound `NCCCCNCCCN` [Spermidine, spermidine], in the series with Drosophila, the Age-induced memory impairment entry was “protects from age-induced memory impairment” and the “Loss of locomotor activity” value is on record as “protects from”. Also, the Cardiac aging entry in [7] (aging mice, chronic administration) is recorded as “protects from cardiac aging”. Also, the “Diastolic function, left ventricular elasticity, and mitochondrial function” value in series [7] (old mice) is listed as “improves”. Moreover, the Age-induced arterial stiffness result in series [8] is “reversed age-induced arterial stiffness”. Further, the “Formation of atherosclerotic plaques” value in series [9] is on record as “alleviated the formation of atherosclerotic plaques”. In addition, in series [10], the Glucose tolerance result was “improved”, the Insulin sensitivity result is listed as “improved” and the Weight gain entry is “reduced weigh gain”. Moreover, in [11], the Blood pressure result is given as “reduced high blood pressure” and the “Transition to heart failure” value is given as “delayed the transition to heart failure”. Also, the Retinal degeneration entry in series [12] is given as “blunts retinal degeneration”. In addition, the “Spatial learning and memory capabilities” value in series [13] is “improves spatial learning and memory capabilities”. For the same compound, in series [14], the Longevity entry is recorded as “extends the longevity”. Besides, the “Signs of pathology in experimental autoimmune encephalomyelitis” value in series [15] is given as “attenuates signs of pathology”. Moreover, in series [16], the Anticancer immune response result was “enhance the anticancer immune response”. In series [17], the Longevity result is given as “extends the longevity”. In addition, the N1-acetylspermidine levels result in series [18] (liver (FIG. 7A) and all mouse organs (data not shown)) is “increase in N1-acetylspermidine levels”. In series [18], the “Acetyl coenzyme A (CoA) levels” value was “acetyl coenzyme A (AcCoA) depletion” and the “Ratio of N1-acetylspermidine over spermidine (polyamine catabolism)” value is given as “promote polyamine catabolism”. Further, in series [18] (listed as spermidine), the “Acetyl coenzyme A (CoA) levels” value was “reduced acetyl coenzyme A (CoA) levels” and the “Ratio of N1-acetylspermidine over spermidine (polyamine catabolism)” value is listed as “increased the ratio”. In addition, in [18] (mice, after spermidine administration), the “Spermidine level in organs” value is “increase of this polyamine in most organs except plasma”.

Source of the values: patent US20200360305A1 (INSERM (Institut National de la Ssnté et de la Researche …, priority 2017, published 2020).
